# Source: patent publication US20260158011A1 (Achieve Life Sciences, Inc., priority 2023, published 2026)
# Where “and” joins values, the source holds several entries; their conditions need not be identical. Equal entries are not always repeated. Where two headings read alike, the source gives them in different places.
# System: adult e-cigarette users
# Settings: for Relative Risk, vaping cessation Week 9 to 12: Row 1 (X = 0) over Row 2 (X = 1); for Common Relative Risk, Logit / Common Relative Risk, Mantel-Haenszel: X = 0 over X = 1, controlling for S; for Relative Risk, Logit / Relative Risk, Mantel-Haenszel: X = 0 over X = 1, no stratifier
# Method: This Example describes a Phase 2 ORCA-V1 trial evaluated 160 adult e-cigarette users at 5 clinical trial locations in the United States. […] ORCA-V1 participants were randomized to receive 3 mg cytisinicline three times daily or placebo for 12 weeks in combination with standard cessation behavioral support. The dose and administration of cytisinicline in the ORCA-V1 study is identical to that used in the Phase 3 registrational trials for smoking cessation.
# ORCA-V1 evaluated the efficacy and safety of 3 mg cytisinicline dosed three times daily for 12 weeks compared to placebo in 160 adult users of e-cigarettes or nicotine vapes. All participants received behavioral support for nicotine cessation.
# Subjects were stratified on whether they have smoked >100 cigarettes in their lifetime (yes vs no) (FIG. 57). […] Missing data may be assumed as reported vaping.
# Key inclusion criteria consisted of daily electronic cigarette usage (age ≥18 years): willing to bring e-cigarette or nicotine device used to clinical site and document specific product type, flavor, and nicotine level. Individuals were required to test positive for cotinine using the Alere iScreen® Oral Fluid Screening Device (Positive testing at 30 ng/mL cotinine level). Individuals required to be willing to set quit date within 7-14 days of after randomization and to participate in vaping cessation behavioral support provided throughout the study.
# Key exclusion criteria included those currently smoking, or having smoked within 4 weeks prior to study randomization, and those with Expired Carbon Monoxide (CO) levels ≥10 ppm, indicating recent combustible tobacco use (i.e., no dual users). Those with clinically abnormal laboratory values were also excluded, as well as those with positive urinary screen for illicit drugs (THC not included in screen). Those with uncontrolled hypertension (BP 160/100 mmHg), abnormal ECG, or recent acute myocardial infarction, stroke, or heart failure admission in past 3 months were excluded. Psychiatric exclusions included (1) schizophrenia or bipolar disorder, (2) current moderate to severe depression symptoms, (3) high risk of suicide ideation. Pregnant or breast-feeding women or unwilling to use acceptable methods of birth control during the study were also excluded.
# The first measurement consisted of biochemically verified continuous vaping abstinence during the last 4 weeks of treatment after 12 weeks of cytisinicline treatment vs placebo. Vaping abstinence during weeks 9-12 was verified with no reported vaping with weekly saliva cotinine levels <10 ng/mL.
# A second measurement consisted of biochemically verified continuous vaping abstinence at any time during treatment, with vaping abstinence at Week 3-6 or Week 6-9 for of cytisinicline treatment vs placebo. 7-day point prevalence rates were compared for vaping abstinence (Week 2 to 12) (FIG. 62). An additional measurement included reduction in daily vaping as measured by cotinine, where cytisinicline treatment vs placebo for a reduction in nicotine vaping using weekly quantitative cotinine levels from Week 2 to Week 12. Safety was assessed by adverse effects and serious adverse effects, considering number, severity, and attribution to study drug.
# [1] = 3 mg cytisinicline TID 12 weeks
# [2] = All Randomized Set, Cytisinicline 12 Weeks N = 107, saliva cotinine <10 ng/mL
# [3] = X = 1, Table of X by Y, all randomized, 107 subjects in row
# [4] = X = 1, stratum S = 0 (>100 cigarettes = No), 30 subjects in row
# [5] = X = 1, stratum S = 1 (>100 cigarettes = Yes), 77 subjects in row
# [6] = share of all N = 107 of the arm
# [7] = vs placebo, no stratifier, N=160, vaping cessation Week 9 to 12
structure (smiles),measurement,setting,value
"O=c1cccc2n1C[C@@H]1CNC[C@H]2C1 [cytisine, (−)-Cytisine]","Odds ratio versus placebo, vaping cessation weeks 9-12, primary analysis with prospective stratification factor",[1],2.6 and 2.64
same,"Odds ratio versus placebo, vaping cessation weeks 9-12, site as a stratification factor",[1],3.03
same,"Odds ratio versus placebo, vaping cessation weeks 9-12, without any stratification factor",[1],2.62
same,Vaping cessation rate during weeks 9-12,"3 mg cytisinicline TID 12 weeks, saliva cotinine <10 ng/mL",31.8%
same,"Continuous Vaping Abstinence Week 9 to Week 16, n (%)","12 Weeks arm N = 107, All Randomized Set",25 (23.4) n (%)
same,"Vaping Cessation from Week 3 to Week 6, percent of subjects",[2],24.3%
same,"Vaping Cessation from Week 6 to Week 9, percent of subjects",[2],30.8%
same,"Vaping Cessation From Week 9 to Week 12, percent of subjects","All Randomized Set, Cytisinicline 12 wks N = 107, saliva cotinine <10 ng/mL",31.8%
same,"7-Day Point Prevalence Abstinence, n (%)","Week 2, 12 Weeks arm N = 107, All Randomized Set",15 (14.0) n (%)
same,"7-Day Point Prevalence Abstinence, Difference in Proportions","Week 2, vs placebo (N = 53)",0.06
same,"7-Day Point Prevalence Abstinence, Odds Ratio","Week 2, vs placebo (N = 53)",2.00
same,"7-Day Point Prevalence Abstinence, n (%)","Week 3, 12 Weeks arm N = 107, All Randomized Set",36 (33.6) n (%)
same,"7-Day Point Prevalence Abstinence, Difference in Proportions","Week 3, vs placebo (N = 53)",0.11
same,"7-Day Point Prevalence Abstinence, Odds Ratio","Week 3, vs placebo (N = 53)",1.73
same,"7-Day Point Prevalence Abstinence, n (%)","Week 4, 12 Weeks arm N = 107, All Randomized Set",53 (49.5) n (%)
same,"7-Day Point Prevalence Abstinence, Difference in Proportions","Week 4, vs placebo (N = 53)",0.25
same,"7-Day Point Prevalence Abstinence, Odds Ratio","Week 4, vs placebo (N = 53)",3.02
same,"7-Day Point Prevalence Abstinence, n (%)","Week 5, 12 Weeks arm N = 107, All Randomized Set",45 (42.1) n (%)
same,"7-Day Point Prevalence Abstinence, Difference in Proportions","Week 5, vs placebo (N = 53)",0.14
same,"7-Day Point Prevalence Abstinence, Odds Ratio","Week 5, vs placebo (N = 53)",1.84
same,"7-Day Point Prevalence Abstinence, n (%)","Week 6, 12 Weeks arm N = 107, All Randomized Set",44 (41.1) n (%)
same,"7-Day Point Prevalence Abstinence, Difference in Proportions","Week 6, vs placebo (N = 53)",0.17
same,"7-Day Point Prevalence Abstinence, Odds Ratio","Week 6, vs placebo (N = 53)",2.15
same,"7-Day Point Prevalence Abstinence, n (%)","Week 7, 12 Weeks arm N = 107, All Randomized Set",52 (48.6) n (%)
same,"7-Day Point Prevalence Abstinence, Difference in Proportions","Week 7, vs placebo (N = 53)",0.26
same,"7-Day Point Prevalence Abstinence, Odds Ratio","Week 7, vs placebo (N = 53)",3.23
same,"7-Day Point Prevalence Abstinence, n (%)","Week 8, 12 Weeks arm N = 107, All Randomized Set",46 (43.0) n (%)
same,"7-Day Point Prevalence Abstinence, Difference in Proportions","Week 8, vs placebo (N = 53)",0.18
same,"7-Day Point Prevalence Abstinence, Odds Ratio","Week 8, vs placebo (N = 53)",2.32
same,"7-Day Point Prevalence Abstinence, n (%)","Week 9, 12 Weeks arm N = 107, All Randomized Set",45 (42.1) n (%)
same,"7-Day Point Prevalence Abstinence, Difference in Proportions","Week 9, vs placebo (N = 53)",0.18
same,"7-Day Point Prevalence Abstinence, Odds Ratio","Week 9, vs placebo (N = 53)",2.23
same,"7-Day Point Prevalence Abstinence, n (%)","Week 10, 12 Weeks arm N = 107, All Randomized Set",44 (41.1) n (%)
same,"7-Day Point Prevalence Abstinence, Difference in Proportions","Week 10, vs placebo (N = 53)",0.13
same,"7-Day Point Prevalence Abstinence, Odds Ratio","Week 10, vs placebo (N = 53)",1.77
same,"7-Day Point Prevalence Abstinence, n (%)","Week 11, 12 Weeks arm N = 107, All Randomized Set",40 (37.4) n (%)
same,"7-Day Point Prevalence Abstinence, Difference in Proportions","Week 11, vs placebo (N = 53)",0.13
same,"7-Day Point Prevalence Abstinence, Odds Ratio","Week 11, vs placebo (N = 53)",1.84
same,"7-Day Point Prevalence Abstinence, n (%)","Week 12, 12 Weeks arm N = 107, All Randomized Set",41 (38.3) n (%)
same,"7-Day Point Prevalence Abstinence, Difference in Proportions","Week 12, vs placebo (N = 53)",0.16
same,"7-Day Point Prevalence Abstinence, Odds Ratio","Week 12, vs placebo (N = 53)",2.12
same,"Vaping cessation Week 9 to 12, Row Pct Y = 0 (failure)","X = 1, Table of X by Y, all randomized",68.22 Pct
same,"Vaping cessation Week 9 to 12, Frequency Y = 0 (failure)",[3],73
same,"Vaping cessation Week 9 to 12, Row Pct Y = 1 (success)",[3],31.78 Pct
same,"Vaping cessation Week 9 to 12, Row Pct Y = 0 (failure)","X = 1, stratum S = 0 (>100 cigarettes = No)",63.33 Pct
same,"Vaping cessation Week 9 to 12, Frequency Y = 0 (failure)",[4],19
same,"Vaping cessation Week 9 to 12, Row Pct Y = 1 (success)",[4],36.67 Pct
same,"Vaping cessation Week 9 to 12, Row Pct Y = 0 (failure)","X = 1, stratum S = 1 (>100 cigarettes = Yes)",70.13 Pct
same,"Vaping cessation Week 9 to 12, Frequency Y = 0 (failure)",[5],54
same,"Vaping cessation Week 9 to 12, Row Pct Y = 1 (success)",[5],29.87 Pct
same,"Column 1 Risk Estimates, Risk, Row 2","Y = 0 (failure of vaping cessation Week 9 to 12), X = 1, N=160",0.6822
same,"Relative Risk, vaping cessation Week 9 to 12","Y = 0 (failure), stratum S = 0, N=45",1.2632
same,"Relative Risk, vaping cessation Week 9 to 12","Y = 0 (failure), stratum S = 1, N=115",1.2383
same,"Common Relative Risk, Logit","Y = 0 (failure), N=160",1.2435
same,"Common Relative Risk, Mantel-Haenszel","Y = 0 (failure), N=160",1.2448
same,"Relative Risk, Logit","Y = 0 (failure), N=160",1.2445
same,"Relative Risk, Mantel-Haenszel","Y = 0 (failure), N=160",1.2445
same,"Relative Risk, vaping cessation Week 9 to 12","Y = 1 (success), stratum S = 0, N=45",0.5455
same,"Relative Risk, vaping cessation Week 9 to 12","Y = 1 (success), stratum S = 1, N=115",0.4405
same,Column 2 Risk Difference (Row 1-Row 2),"Y = 1 (success), X = 0 minus X = 1, N=160",−0.1668
same,"Common Relative Risk, Logit","Y = 1 (success), N=160",0.4784
same,"Common Relative Risk, Mantel-Haenszel","Y = 1 (success), N=160",0.4747
same,"Relative Risk, Logit","Y = 1 (success), N=160",0.4750
same,"Relative Risk, Mantel-Haenszel","Y = 1 (success), N=160",0.4750
same,"Column 2 Risk Estimates, Risk, Row 2","Y = 1 (vaping cessation Week 9 to 12), X = 1, N=160",0.3178
same,"Difference in Proportions, Vaping Cessation from Week 3 to Week 6",placebo group as reference,0.09
same,"Difference in Proportions, Vaping Cessation from Week 6 to Week 9",placebo group as reference,0.14
same,"Odds Ratio, Vaping Cessation from Week 3 to Week 6",placebo group as reference,1.81
same,"Odds Ratio, Vaping Cessation from Week 6 to Week 9",placebo group as reference,2.18
same,"Marginal Difference in Proportions, Vaping Cessation from Week 9 to Week 12","placebo group as reference, All Randomized Set",0.17
same,"Vaping Cessation From Week 9 to Week 12, value in parentheses, >100 Cigarettes smoke in Lifetime = No",[6],10.3
same,"Vaping Cessation From Week 9 to Week 12, value in parentheses, >100 Cigarettes smoke in Lifetime = Yes",[6],21.5
same,"Vaping Cessation From Week 9 to Week 12, number of subjects, >100 Cigarettes smoke in Lifetime = No","stratum S = 0 (N=45; 30 on cytisinicline), Frequency X = 1, Y = 1 in FREQ table",11
same,"Vaping Cessation From Week 9 to Week 12, number of subjects, >100 Cigarettes smoke in Lifetime = Yes","stratum S = 1 (N=115; 77 on cytisinicline), Frequency X = 1, Y = 1 in FREQ table",23
same,"Continuous Vaping Abstinence Week 9 to Week 16, Difference in Proportions",vs placebo (N = 53),0.10
same,"Continuous Vaping Abstinence Week 9 to Week 16, Odds Ratio",vs placebo (N = 53),2.00
same,"Common Odds Ratio (Mantel-Haenszel), vaping cessation Week 9 to 12","vs placebo, controlling for S (>100 Cigarettes Smoked in Lifetime no, yes), N=160, listed as Cytisinicline",2.6375 and 2.64
same,"Common Odds Ratio (Logit), vaping cessation Week 9 to 12","vs placebo, controlling for S, N=160",2.6304
same,"Common Odds Ratio (Logit), summary statistics for X by Y",[7],2.6199
same,"Common Odds Ratio (Mantel-Haenszel), summary statistics for X by Y",[7],2.6199
same,"Odds Ratio, vaping cessation Week 9 to 12","vs placebo, stratum S = 0 (>100 cigarettes = No), N=45",2.3158
same,"Odds Ratio, vaping cessation Week 9 to 12","vs placebo, stratum S = 1 (>100 cigarettes = Yes), N=115",2.8111
